These results are taken from patent publication US20210085686A1, “DELIVERY OF ACTIVE AGENTS USING NANOFIBER WEBS” (CorMedix Inc., priority 2015, published 2021).

Data set [1] in a line: maximum solubility of taurolidine in HFP (preliminary testing). Type of data set: physicochemical. The note with it: organic solvent or mixture; solvent 1,1,1,3,3,3-hexafluoro-2-propanol (HFP). Here is the method:
All of the polymers and the taurolidine were dissolved in 1,1,1,3,3,3-hexafluoro-2-propanol (HFP; Oakwood Chemical) for processing into small diameter (SD) and large diameter (LD) fibers. […] Thus, for preliminary testing, the taurolidine concentration in the electrospinning solutions was maintained at approximately 100 mg/ml.

Data set [2] concerns Microbes. The settings on record: microbes killed and toxins inactivated; cited from earlier work.

The structures appear in SMILES notation. In brackets after ≈: the same amount, converted by molar mass.

What is called solubility is the concentration that dissolves in the medium under given conditions. Consider `O=S1(=O)CCN(CN2CCS(=O)(=O)NC2)CN1` [taurolidine, bis(1,1-dioxoperhydro-1,2,4-thiadiazinyl-4)-methane], for which the solubility in data set [1] was approximately 218 mg/mL (≈ 767 mM). Also, the “destruction time in vitro” value in data set [2] was 30 min.
